Two substances from patent publication US7160725B2, “Hedgehog signaling promotes the formation of three dimensional cartilage matrices” (Curis, Inc., priority 2001, dated 2007) can be followed below.

“Also recorded” adds a separate entry of the source.

Assay type in all cases: cell-based, human
The test system of test [1] is Mesenchymal stem cells. Put plainly: Change in mesenchymal stem cell behavior following factor treatment (culture observation). The method, then:
Mesenchymal stem cells were derived from human volunteers under general anesthesia. Bone marrow was harvested from the iliac crest by aspiration. Approximately 5 mL of bone marrow was suspended in essential medium containing 20% fetal bovine serum (FBS), antibiotics, and glutamine (Sigma). […] The non-adherent cells, as well as any debris, is easily separated from the adherent mesenchymal stem cells.
Mesenchymal stem cells were plated at a density of 1×10^6/mL in a six well plate. Following adhesion of the cells to the plate, cells were treated with either medium containing 20% FBS, with medium supplemented with TGFβ-1, or with medium supplemented with sonic hedgehog.
Following adhesion of cells to the plate, cells were treated with either medium containing 20% FBS (negative control), medium containing 1 ng/mL TGFβ-1, or medium containing 100 ng/mL of the lipid modified N-terminal fragment of sonic hedgehog. In all cases, the medium was changes twice per week throughout the duration of the experiment.

Test [2] concerns Mesenchymal stem cells. Description: Hematoxyline-eosine staining of paraffin sections of treated tissue. The note with it: 100 ng/mL lipid modified sonic hedgehog; 21 days. The method, then: (§1) Mesenchymal stem cell cultures were established, as described in detail above. Cells were cultured in the presence of 20% FBS, 1 ng/mL TGFβ-1, or 100 ng/mL lipid modified sonic hedgehog, and the medium was changed twice per week. After 21 days in culture, tissue was harvested, and fixed overnight in formaline solution. Fixed tissue was washed, dehydrated, embedded in paraffin, and 4 μm sections were cut using a microtome. Sections were mounted on adhesive slides, and processed for histology and immunohistochemistry.
Mounted paraffin sections were stained with hematoxyline-eosine, and viewed under a light microscope.

Test [3] concerns Mesenchymal stem cells. Description: Alcian blue staining of paraffin sections of treated tissue. The note with it: 100 ng/mL lipid modified sonic hedgehog; 21 days; Alcian blue pH 2.5. Here is the method:
as §1
Mounted paraffin sections were stained with Alcian blue. Sections were treated with Alcian blue, pH 2.5 and 3% Acetic acid for five minutes. Following treatment, the sections were washed with ultrapure water.

The test system of test [4] is Mesenchymal stem cells. Description: Immunohistochemistry of paraffin sections of treated tissue. Particulars: 100 ng/mL lipid modified sonic hedgehog; 21 days. Here is the method: as §1
Mounted paraffin sections were processed for immunohistochemistry with an automatic stainer (DAKO TechMate™) using indirect streptavidin-biotin methods with a Fuchsintype chromogen. The following primary antibodies were used: vimentin, collagen II, Indian hedgehog, PTHrp, BMPR-IA, BMPR-IB, and BMPR-II. Immunohistochemistry was by standard methods except for the PTHrp antibody which required incubation of the tissue with proteinase K.

[5] abbreviates: 1 ng/mL TGFβ-1, after a week in culture.

On to “TGFβ-1: TGFβ family polypeptide, added to the culture medium at 1 ng/mL”, for which, in test [1] (setting [5]), the cell morphology entry was “morphologically distinct” and the cell size entry is recorded as “larger”. The “proliferative effects on mesenchymal stem cells” value in test [1] (treatment with TGFβ-1) was “robust proliferative effects”.
As to sonic hedgehog, the “cell migration and clustering in the culture well” value in test [1] (100 ng/mL lipid modified N-terminal fragment of sonic hedgehog, after the first two weeks in culture) was “appeared to migrate and clustered in one half the area of the culture well”. Also, the “formation of a ball of tissue from the cell cluster” value in test [1] (100 ng/mL lipid modified N-terminal fragment of sonic hedgehog, approximately three weeks in culture) is “condensed and migrated to form a small ball; also recorded: formed a grayish-white ball”. The “cell proliferation in culture” value in test [1] (100 ng/mL lipid modified N-terminal fragment of sonic hedgehog, first two weeks in culture) is “proliferated efficiently”. Besides, the “tissue organization and matrix production (hematoxyline-eosine, light microscope)” value in test [2] is “extensive organization of the tissue, the intricate folding of the layers, and the abundant matrix production; also recorded: highly organized, contains several folded layers, and produces abundant matrix”. For the same substance, in test [3], the “Alcian blue staining (acid mucopolysaccharids)” value is recorded as “Positive”. In test [4], the BMPR-IA immunostaining entry is recorded as “not detected; also recorded: immunonegative”, the BMPR-IB immunostaining entry is reported as “immunopositive”, the BMPR-II immunostaining entry is “immunopositive” and the Indian hedgehog immunostaining entry is listed as “immunonegative”. Moreover, in test [4], the PTHrp immunostaining entry is “immunopositive”, the “collagen II immunostaining” value was “strongly expressed; also recorded: strongly immunopositive” and the vimentin immunostaining result is recorded as “strongly immunopositive”.
